≈ marks a conversion by molar mass, not a printed value. Where two headings read alike, the source gives them in different places.
What was measured:
E. coli K12 biofilms = experiment: Minimum inhibitory concentration (MIC) with the Calgary Biofilm Device (MBEC assay); assay type: cell-based, Escherichia coli K-12; details: 24 h, dark, 37 °C, 90% inhibition of growth, OD 600 nm
Experimental: To screen the effectiveness of EO-OPEs shown above at killing bacteria residing in a biofilm, a Calgary Biofilm Device (CBD), commercially available as the MBEC™ assay was used to grow 96 equivalent biofilms at a time, and to determine the minimum inhibitory concentration (MIC). After incubating the CBD devise in Escherichia coli (E. coli K12) suspension in LB media for 24 hours, biofilms were uniformly formed on the CBD surface. The E. coli biofilms were then incubated with EO-OPEs for 24 hours to obtain their MIC values.
(§1) Escherichia coli K-12 was obtained from the American Type Culture Collection (ATCC #10798), revived in Luria Broth (LB, Sigma) and stored in LB with 20% (v/v) glycerol at −70° C. Stock cultures maintained on agar (2% Difco) plates of LB were used to inoculate 50 mL cultures in liquid LB. E. coli was grown at 37° C. for 18 h. Bacteria were grown as a microbial biofilm using a Calgary Biofilm Device (CBD), commercially available as the MBEC™ assay, featuring 96 pegs protruding down from a microtiter plate lid and fitting into the wells of a standard 96-well microtiter plate. This device allows 96 identical biofilms to grow on the pegs at a time. Biofilms of E. coli were grown in each well using 150 μL of the culture diluted to 1×10^7 CFU (colony forming unit) following previous calibration. The biofilms were grown at 37° C. for 24 h in a shaker at 150 rpm.
The minimum inhibitory concentration (MIC) represents the lowest concentration of antimicrobial required to inhibit the visible growth of a planktonic bacterial population. The MIC was determined using the CBD.^17, 18, 20 Biofilms were formed on the peg surface of the CBD as described above and then transferred to a 96-well microtiter plate containing 200 μL of saline (0.85% NaCl aqueous solution) and washed for 5 min to remove non-adherent bacteria. The biofilms were transferred to a plate containing 200 μL of LB with a gradient concentration of the OPEs (challenge plate). Each concentration was repeated eight times (one row of the plate). The biofilms were then incubated in the dark at 37° C. for 24 h. To determine the MIC, the growth of bacteria was evaluated in the challenge plate after incubation. The optical density of each well was measured at 600 nm and the MIC was calculated for 90% inhibition of growth compared with biofilms grown in LB only.

E. coli biofilms = experiment: Minimum biofilm eradication concentration (MBEC) with the Calgary Biofilm Device; assay type: cell-based, Escherichia coli K-12; details: for MBEC (dark) / MBEC (light): E. coli biofilm; for MBEC (dark): 24 h incubation in the dark; for MBEC (light): 1 h near-UV light (300-400 nm)
Experimental: as §1
The Minimum biofilm eradication concentration (MBEC) is the lowest concentration at which bacteria from a biofilm fail to regrow. The MBEC was also measured using the CBD and detailed procedure has been described elsewhere.^17, 18, 20 Biofilms were formed and washed as described above. The biofilms were then transferred to a plate containing saline with a gradient concentration of the OPEs (challenge plate). The samples exposed to light were incubated for 1 h in a LuzChem ORG photoreactor using Hitachi FL8BL-B (λ=300-400 nm) lamps, whereas the samples kept in the dark, were incubated for 24 h in a shaker at 150 rpm. The biofilms were then removed from the challenge plate and washed twice in a plate of saline solution to remove traces of OPEs. The biofilms were placed in a plate containing LB media (recovery plate) and sonicated for 10 min in an ultrasonic cleaner (VWR 97043-964) in order to recover the biofilm in the media solution through vibration. The recovery plate containing the biofilms was incubated in the dark at 37° C. for 24 h. To determine the MBEC, the growth of bacteria was evaluated in the recovery plate after incubation. […] Bacterial grown in a specific well indicates regrowth of planktonic bacteria from surviving biofilm, while clear wells indicate the eradication of the biofilms and the lack of bacteria regrowth.

S. aureus = experiment: Viability of S. aureus cells after UV exposure or dark incubation with oligomer solution; assay type: cell-based; details: for killing / deactivation of S. aureus: 10 min UV irradiation, 1 μg/mL printed for EO-OPE-DABCO
Experimental: FIG. 24 is a graph showing the viability of S. aureus cells with 1 μg/mL and 10 μg/mL of OPE-DABCO and EO-OPE-DABCO solution following exposure to UV light and incubation in dark.
[drawing 28] containing quaternary ammonium pendant groups based on 1,4-diazabicyclo-[2.2.2.]-octane (DABCO). It has been shown that the incorporation of the DABCO group into antimicrobials might amplify its ability to diffuse into the bacterial cell wall due to similarities between this moiety and the lipid layer. [Ref: Kenawy, E. R., S. D. Worley, and R. Broughton, The chemistry and applications of antimicrobial polymers: A state-of-the-art review. Biomacromolecules, 2007. 8(5): p. 1359-1384] Therefore, the binding of antimicrobials to the cytoplasmic membrane of the bacteria is increased by both ionic and van der Waals interactions. [Ref: Kenawy, E. R., S. D. Worley, and R. Broughton, The chemistry and applications of antimicrobial polymers: A state-of-the-art review. Biomacromolecules, 2007. 8(5): p. 1359-1384] These two oligomers have been employed to compare their antimicrobial activity both in the dark and under the UV light in regard to their structure difference.

[1] = Singlet oxygen quantum yield, emission at 1270 nm; assay type: physicochemical; details: CD3OD, 2'-acetonaphthone (ΦΔ = 0.79) as actinometer
Excerpt: We carried out transient absorption experiments in methanol and water solutions. […] The lifetime of the transient absorption is in the microsecond range and in each case it is efficiently quenched by O2 indicating the absorption is due to the triplet excited state. By examination of the initial amplitudes of the transient absorption (ΔA, t=0, Table 1), we were able to qualitatively determine the relative triplet yield of these oligomers. […] To substantiate our hypothesis, we carried out studies to observe singlet oxygen emission in deuterated methanol (as the life time of the singlet oxygen is very short in […]).^21 As anticipated, each of the oligomers is capable of sensitizing the formation of singlet oxygen as observed by its characteristic emission at 1270 nm. Of the oligomers studied, (C) and (E) show a higher quantum yield for singlet oxygen generation (ΦΔ) which corroborates well with the photophysical studies described above.
Absorption and fluorescence spectra were recorded on a Cary 100 UV-Vis spectrophotometer and a Photon Technology International spectrofluorometer, respectively. The optical density of the solutions was adjusted to ˜0.7 at the excitation wavelength (355 nm) with the laser energy set at ˜7 mJ. Solutions were purged with argon for 45 min before making transient absorption spectroscopy measurements. Singlet oxygen quantum yields were measured using a Photon Technology International Quantamaster near-IR spectrophotometer equipped with an InGaAs photodiode detector, optical chopper and a lock in amplifier. See Table 1 and FIGS. 1-2 for results.

[2] = Escherichia coli, K12BIOFILMS, read-out: MIC

NC[C@H]1O[C@H](O[C@H]2[C@H](O)[C@@H](O[C@H]3O[C@H](CO)[C@@H](O)[C@H](N)[C@H]3O)[C@H](N)C[C@@H]2N)[C@H](O)[C@@H](O)[C@@H]1O [kanamycin, reference compound]
MIC (E. coli K12 biofilms; [2]): 11.2 µg/mL (≈ 23.1 µM) | MBEC (dark) (E. coli biofilms): >1000 µg/mL

CCCCCC[N+]12CC[N+](CCCOc3cc(C#Cc4ccc(C(=O)OCC)cc4)c(OCCC[N+]45CC[N+](CCCCCC)(CC4)CC5)cc3C#Cc3ccc(C(=O)OCC)cc3)(CC1)CC2 [oligomer (A)]
MIC (E. coli K12 biofilms; [2]): 52 µg/mL | MIC (E. coli K12 biofilms): 51.7 µg/mL | killing of E. coli biofilm under near-UV light exposure (E. coli biofilms; 1 h near-UV, in the concentration range tested): did not show any killing | dark killing of E. coli biofilm (E. coli biofilms; 24 h dark, concentration range <1000 μg/mL): did not exhibit any dark killing | MBEC (light) (E. coli biofilms): >500 µg/mL | MBEC (dark) (E. coli biofilms): >1000 µg/mL | killing / deactivation of S. aureus (S. aureus): ~75% | deactivation of S. aureus with increasing irradiation time (S. aureus; UV, irradiation longer than 10 min (FIG. 24)): ~99% | ΦΔ (quantum yield for singlet oxygen generation) [1]: 0.34 ± 0.03

CCCCCC[N+]12CC[N+](CCCOc3ccc(C#Cc4ccc(C#Cc5ccc(OCCC[N+]67CC[N+](CCCCCC)(CC6)CC7)cc5)cc4)cc3)(CC1)CC2 [oligomer (B)]
MIC (E. coli K12 biofilms; [2]): 14 µg/mL | MIC (E. coli K12 biofilms): 14.0 µg/mL | MBEC (light) (E. coli biofilms): 60 µg/mL | MBEC (dark) (E. coli biofilms): 200 µg/mL | killing / deactivation of S. aureus (S. aureus): 100% | bacteria surviving (S. aureus; S. aureus, 10 min incubation in the dark): < 10% | ΦΔ (quantum yield for singlet oxygen generation) [1]: 0.20 ± 0.02

CCCCCC[N+]12CC[N+](CCCOc3ccc(C#Cc4ccc(C#Cc5ccc(OCCC[N+]67CC[N+](CCCCCC)(CC6)CC7)cc5)s4)cc3)(CC1)CC2 [oligomer (C)]
MIC (E. coli K12 biofilms; [2]): 15.8 µg/mL | MBEC (light) (E. coli biofilms): 60 µg/mL | MBEC (dark) (E. coli biofilms): 150 µg/mL | ΦΔ (quantum yield for singlet oxygen generation) [1]: 0.46 ± 0.02

— patent publication US10058099B2, “Antimicrobial materials and methods” (University of Florida Research Foundation, Inc., priority 2011, dated 2018)
